Reference: patent US10316017B2, “COT modulators and methods of use thereof” (Gilead Sciences, Inc., priority 2015, dated 2019)

Assays:
[1] = system: TNFα production in LPS-stimulated human monocytes; experiment: Cot Monocyte TNFα Cell Based Assay; conditions: Homo sapiens, Monocyte, LPS-stimulated human monocytes, TNFα TR-FRET; read-out: EC50 TNF
How it was run: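 5,000 cells/well; cmpd 1 h, 37 °C, 0.5% DMSO final; LPS 50 pg/ml, 4 h, 37 °C; media TNFα by HTRF sandwich (cryptate/XL665), RT overnight; % control vs unstimulated/stimulated wells.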

[2] = biological target: T1, human Cot catalytic domain (30-397 amino acids) (Homo sapiens, UniProt P41279); experiment: High Throughput Cot Biochemical Assay (KinEASE TR-FRET); conditions: Cot KinEASE TR-FRET, 400 μM ATP; read-out: IC50 HTRF
T1 construct: Purified recombinant human Cot catalytic domain (30-397 amino acids) was purchased from Cama Biosciences; purchased Cama Biosciences (so in the source)
How it was run: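 First, purified human Cot (aa 30-397) at 5 nM phosphorylates an XL665-labeled STK3 peptide (1 μM) at 400 μM ATP, pH 7.0, 0.1% DMSO. Then a europium-conjugated phospho-specific antibody binds the product, giving the TR-FRET signal.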

T1 sequence (P41279 30-397): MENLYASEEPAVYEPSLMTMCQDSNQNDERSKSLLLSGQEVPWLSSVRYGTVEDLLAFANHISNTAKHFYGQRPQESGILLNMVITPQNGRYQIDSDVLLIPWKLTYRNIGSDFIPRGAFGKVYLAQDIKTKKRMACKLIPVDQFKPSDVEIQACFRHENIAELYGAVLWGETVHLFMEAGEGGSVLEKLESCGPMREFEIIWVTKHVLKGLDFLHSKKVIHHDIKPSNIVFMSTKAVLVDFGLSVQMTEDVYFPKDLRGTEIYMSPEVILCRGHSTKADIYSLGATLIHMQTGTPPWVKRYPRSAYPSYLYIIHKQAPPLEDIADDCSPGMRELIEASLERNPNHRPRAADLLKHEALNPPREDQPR

EC50 [1] [nM]	IC50 [2] [nM]	SMILES
407	10	CC(C)(C)CNc1c(C#N)cnc2c(Cl)cc(N[C@@H](c3cccc(C4(C#N)CC4)c3)c3cn(C45CC(C4)C5)nn3)cc12 [Example 1094, (S)-6-(((1-(bicyclo[1.1.1]pentan-1-yl)-1H-1,2,3-triazol-4-yl)(3-(1-cyanocyclopropyl)phenyl)methyl)amino)-8-chloro-4-(neopentylamino)quinoline-3-carbonitrile]
226	12	Cc1c(-c2ccncc2)cccc1[C@H](Nc1cc(Cl)c2ncc(C#N)c(NCC(C)(C)C)c2c1)c1cn(C2(C(F)(F)F)CC2)nn1 [Example 1095, (S)-8-chloro-6-(((2-methyl-3 (pyridin-4-yl)phenyl)(1-(1-(trifluoromethyl)cyclopropyl)-1H-1,2,3-triazol-4-yl)methyl)amino)-4-(neopentylamino)quinoline-3-carbonitrile]
262	10	Cc1c(-c2cccnc2)cccc1[C@H](Nc1cc(Cl)c2ncc(C#N)c(NCC(C)(C)C)c2c1)c1cn(C2(C(F)(F)F)CC2)nn1 [Example 1096, (S)-8-chloro-6-(((2-methyl-3-(pyridin-3-yl)phenyl)(1-(1-(trifluoromethyl)cyclopropyl)-1H-1,2,3-triazol-4-yl)methyl)amino)-4-(neopentylamino)quinoline-3-carbonitrile]
166	9	Cc1c(-c2cnn(C)c2)cccc1[C@H](Nc1cc(Cl)c2ncc(C#N)c(NCC(C)(C)C)c2c1)c1cn(C2(C(F)(F)F)CC2)nn1 [Example 1097, (S)-8-chloro-6-(((2-methyl-3-(1-methyl-1H-pyrazol-4-yl)phenyl) (1-(1-(trifluoromethyl)cyclopropyl)-1H-1,2,3-triazol-4-yl)methyl)amino)-4-(neopentylamino)quinoline-3-carbonitrile]
73	23	Cc1cc(C#N)ccc1[C@H](Nc1cc(Cl)c2ncc(C#N)c(NCC(C)(C)C)c2c1)c1cn(C2(C(F)F)CC2)nn1 [Example 1098, (S)-8-chloro-6-(((4-cyano-2-methylphenyl)(1-(1-(difluoromethyl)cyclopropyl)-1H-1,2,3-triazol-4-yl)methyl)amino)-4-(neopentylamino)quinoline-3-carbonitrile]
45	4	Cc1c(C#N)cccc1[C@H](Nc1cc(Cl)c2ncc(C#N)c(NCC(C)(C)C)c2c1)c1cn(C2(CF)CC2)nn1 [Example 1100, (S)-8-chloro-6-(((3-cyano-2-methylphenyl)(1-(1-(fluoromethyl)cyclopropyl)-1H-1,2,3-triazol-4-yl)methyl)amino)-4-(neopentylamino)quinoline-3-carbonitrile]
27	3	Cc1c(C#N)cccc1[C@H](Nc1cc(Cl)c2ncc(C#N)c(NCC(C)(C)C)c2c1)c1cn(C2(C)CC2)nn1 [Example 1101, (S)-8-chloro-6-(((3-cyano-2-methylphenyl)(1-(1-methylcyclopropyl)-1H-1,2,3-triazol-4-yl)methyl)amino)-4-(neopentylamino)quinoline-3-carbonitrile]
63	8	Cc1c(C#N)cccc1[C@H](Nc1cc(Cl)c2ncc(C#N)c(NCC(C)(C)C)c2c1)c1cn(C(CF)CF)nn1 [Example 1102, (S)-8-chloro-6-(((3-cyano-2-methylphenyl)(1-(1,3-difluoropropan-2-yl)-1H-1,2,3-triazol-4-yl)methyl)amino)-4-(neopentylamino)quinoline-3-carbonitrile]
26	5	Cc1c(C#N)cccc1[C@H](Nc1cc(Cl)c2ncc(C#N)c(NCC(C)(C)C)c2c1)c1cn([C@@H](C)CF)nn1 [Example 1103, 8-chloro-6-(((S)-(3-cyano-2-methylphenyl)(1-((S)-1-fluoropropan-2-yl)-1H-1,2,3-triazol-4-yl)methyl)amino)-4-(neopentylamino)quinoline-3-carbonitrile]
53	3	Cc1c(C#N)cccc1[C@H](Nc1cc(Cl)c2ncc(C#N)c(NCC(C)(C)C(F)(F)F)c2c1)c1cn(C2(C)CC2)nn1 [Example 1104, (S)-8-chloro-6-(((3-cyano-2-methylphenyl)(1-(1-methylcyclopropyl)-1H-1,2,3-triazol-4-yl)methyl)amino)-4-((3,3,3-trifluoro-2,2-dimethylpropyl)amino)quinoline-3-carbonitrile]

More lines, now with the values behind:

SMILES	EC50 [1] [nM]	IC50 [2] [nM]
Cc1c([C@H](Nc2cc(C#N)c3ncc(C#N)c(NCC(C)(C)C)c3c2)c2cn(C3(C(F)F)CC3)nn2)cccc1-n1cnnn1 [Example 1082, (S)-6-(((1-(1-(difluoromethyl)cyclopropyl)-1H-1,2,3-triazol-4-yl)(2-methyl-3-(1H-tetrazol-1-yl)phenyl)methyl)amino)-4-(neopentylamino)quinoline-3,8-dicarbonitrile]	262	2
Cc1cc(F)ccc1[C@H](Nc1cc(C#N)c2ncc(C#N)c(NCC(C)(C)C)c2c1)c1cn(C2(C(F)F)CC2)nn1 [Example 1083, (S)-6-(((1-(1-(difluoromethyl)cyclopropyl)-1H-1,2,3-triazol-4-yl)(4-fluoro-2-methylphenyl)methyl)amino)-4-(neopentylamino)quinoline-3,8-dicarbonitrile]	63	13
CC(C)(C)CNc1c(C#N)cnc2c(Cl)cc(N[C@@H](c3ccc(C#N)cc3)c3cn(C4CC4)nn3)cc12 [Example 1084, (S)-8-chloro-6-(((4-cyanophenyl)(1-cyclopropyl-1H-1,2,3-triazol-4-yl)methyl)amino)-4-(neopentylamino)quinoline-3-carbonitrile]	73	7
Cc1c(-c2ccncc2)cccc1[C@H](Nc1cc(Cl)c2ncc(C#N)c(NCC(C)(C)C)c2c1)c1cn(C2(C(F)F)CC2)nn1 [Example 1085, (S)-8-chloro-6-(((1-(1-(difluoromethyl)cyclopropyl)-1H-1,2,3-triazol-4-yl)(2-methyl-3-(pyridin-4-yl)phenyl)methyl)amino)-4-(neopentylamino)quinoline-3-carbonitrile]	205	5
Cc1c(-c2cnn(C)c2)cccc1[C@H](Nc1cc(Cl)c2ncc(C#N)c(NCC(C)(C)C)c2c1)c1cn(C2(C(F)F)CC2)nn1 [Example 1086, (S)-8-chloro-6-(((1-(1-(difluoromethyl)cyclopropyl)-1H-1,2,3-triazol-4-yl)(2-methyl-3-(1-methyl-1H-pyrazol-4-yl)phenyl)methyl)amino)-4-(neopentylamino)quinoline-3-carbonitrile]	76	4
CCOC(=O)c1cccc([C@H](Nc2cc(Cl)c3ncc(C#N)c(NCC(C)(C)C)c3c2)c2cn(C3(C(F)(F)F)CC3)nn2)c1F [Example 1087, ethyl (S)-3-(((8-chloro-3-cyano-4-(neopentylamino)quinolin-6-yl)amino)(1-(1-(trifluoromethyl)cyclopropyl)-1H-1,2,3-triazol-4-yl)methyl)-2-fluorobenzoate]	375	22
COC(=O)c1cc([C@H](Nc2cc(Cl)c3ncc(C#N)c(NCC(C)(C)C)c3c2)c2cn(C3(C(F)(F)F)CC3)nn2)ccc1F [Example 1088, methyl (S)-5-(((8-chloro-3-cyano-4-(neopentylamino)quinolin-6-yl)amino)(1-(1-(trifluoromethyl)cyclopropyl)-1H-1,2,3-triazol-4-yl)methyl)-2-fluorobenzoate]	934	22
Cc1c(C#N)cccc1[C@H](Nc1cc(Cl)c2ncc(C#N)c(NCC(C)(C)C(F)(F)F)c2c1)c1cn(C2(C(F)F)CC2)nn1 [Example 1089, (S)-8-chloro-6-(((3-cyano-2-methylphenyl)(1-(1-(difluoromethyl)cyclopropyl)-1H-1,2,3-triazol-4-yl)methyl)amino)-4-((3,3,3-trifluoro-2,2-dimethylpropyl)amino)quinoline-3-carbonitrile]	23	7
Cc1c(F)cccc1[C@H](Nc1cc(Cl)c2ncc(C#N)c(NCC(C)(C)C)c2c1)c1cn(C2(C(F)(F)F)CC2)nn1 [Example 1090, (S)-8-chloro-6-(((3-fluoro-2-methylphenyl)(1-(1-(trifluoromethyl)cyclopropyl)-1H-1,2,3-triazol-4-yl)methyl)amino)-4-(neopentylamino)quinoline-3-carbonitrile]	614	75
CC(C)(C)CNc1c(C#N)cnc2c(Cl)cc(N[C@@H](c3cccc(C4(C#N)CC4)c3)c3cn(C4(C(F)(F)F)CC4)nn3)cc12 [Example 1091, (S)-8-chloro-6-(((3-(1-cyanocyclopropyl)phenyl)(1-(1-(trifluoromethyl)cyclopropyl)-1H-1,2,3-triazol-4-yl)methyl)amino)-4-(neopentylamino)quinoline-3-carbonitrile]	≥ 1000	28
CC(C)(C)CNc1c(C#N)cnc2c(Cl)cc(N[C@@H](c3ccc(F)cc3)c3cn(C45CC(C4)C5)nn3)cc12 [Example 1092, (S)-6-(((1-(bicyclo[1.1.1]pentan-1-yl)-1H-1,2,3-triazol-4-yl)(4-fluorophenyl)methyl)amino)-8-chloro-4-(neopentylamino)quinoline-3-carbonitrile]	395	20
CC(C)(C)CNc1c(C#N)cnc2c(Cl)cc(N[C@@H](c3ccccc3)c3cn(C45CC(C4)C5)nn3)cc12 [Example 1093, (S)-6-(((1-(bicyclo[1.1.1]pentan-1-yl)-1H-1,2,3-triazol-4-yl)(phenyl)methyl)amino)-8-chloro-4-(neopentylamino)quinoline-3-carbonitrile]	424	17
